Test [1] deals with T1, Bile salt export pump (Rattus norvegicus, UniProt O70127).
T1 sequence (O70127 whole entry): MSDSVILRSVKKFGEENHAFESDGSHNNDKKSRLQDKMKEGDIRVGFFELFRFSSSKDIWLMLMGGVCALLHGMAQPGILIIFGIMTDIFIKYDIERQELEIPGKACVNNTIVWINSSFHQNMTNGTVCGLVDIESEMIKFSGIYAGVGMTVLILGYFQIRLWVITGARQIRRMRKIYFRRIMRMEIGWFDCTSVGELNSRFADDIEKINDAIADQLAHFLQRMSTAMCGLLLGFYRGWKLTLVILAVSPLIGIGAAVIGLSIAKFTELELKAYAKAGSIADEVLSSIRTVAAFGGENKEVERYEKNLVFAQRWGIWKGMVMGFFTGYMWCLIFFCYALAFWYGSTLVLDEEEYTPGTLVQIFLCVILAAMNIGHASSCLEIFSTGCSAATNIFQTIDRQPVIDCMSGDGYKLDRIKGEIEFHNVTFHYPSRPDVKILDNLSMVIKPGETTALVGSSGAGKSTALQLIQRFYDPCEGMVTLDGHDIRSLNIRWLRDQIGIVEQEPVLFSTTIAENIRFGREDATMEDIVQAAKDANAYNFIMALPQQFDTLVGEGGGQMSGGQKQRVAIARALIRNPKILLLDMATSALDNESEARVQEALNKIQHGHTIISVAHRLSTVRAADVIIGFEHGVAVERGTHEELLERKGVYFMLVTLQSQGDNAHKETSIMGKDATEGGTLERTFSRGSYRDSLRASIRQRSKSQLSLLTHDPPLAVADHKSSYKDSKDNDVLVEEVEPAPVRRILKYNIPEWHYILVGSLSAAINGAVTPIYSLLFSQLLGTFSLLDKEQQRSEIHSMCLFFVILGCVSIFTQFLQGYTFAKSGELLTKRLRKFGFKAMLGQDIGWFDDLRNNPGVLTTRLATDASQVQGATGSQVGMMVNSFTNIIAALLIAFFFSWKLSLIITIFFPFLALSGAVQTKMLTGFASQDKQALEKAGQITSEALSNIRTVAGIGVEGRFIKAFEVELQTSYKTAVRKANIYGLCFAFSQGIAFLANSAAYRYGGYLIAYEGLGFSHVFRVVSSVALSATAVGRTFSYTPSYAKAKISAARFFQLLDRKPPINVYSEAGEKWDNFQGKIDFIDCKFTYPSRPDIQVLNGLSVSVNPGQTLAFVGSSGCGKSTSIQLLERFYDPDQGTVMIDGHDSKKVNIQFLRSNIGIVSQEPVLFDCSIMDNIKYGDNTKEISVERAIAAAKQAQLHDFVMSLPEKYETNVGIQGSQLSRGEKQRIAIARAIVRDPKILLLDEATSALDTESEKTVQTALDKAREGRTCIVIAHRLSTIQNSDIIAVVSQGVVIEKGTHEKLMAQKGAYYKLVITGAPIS
Nature of the test: Inhibition of BSEP in Sprague-Dawley rat canalicular membrane vesicles assessed as reduction in ATP-dependent [3H]-taurocholate uptake. It counts as ADME.

The target in test [2] is Bile salt export pump (Homo sapiens, UniProt O95342). It counts as ADME.

Turning to `COc1ccc(CCN(C)CCCC(C#N)(c2ccc(OC)c(OC)c2)C(C)C)cc1OC` (stereo not given), the Ki on Bile salt export pump [1] worked out at 92.5 µM.

Take BISMUTH SUBSALICYLATE: the IC50 at Bile salt export pump [2] was over 1000 µM.

As for `CN1CCN(C2=Nc3cc(Cl)ccc3Nc3ccccc32)CC1` [CLOZAPINE], the half-inhibitory concentration (IC50) on Bile salt export pump [2] came to 75.1 µM.

As for `CC[C@@H](C(N)=O)N1CCCC1=O`, the IC50 on Bile salt export pump [2] was over 1000 µM.

On to `CN=C(N)NC(=O)Nc1c(C)cccc1C` [LIDAMIDINE], for which the IC50 at Bile salt export pump [2] is over 1000 µM.

Regarding `NC(CO)C(=O)NNCc1ccc(O)c(O)c1O` (stereo not given) [BENSERAZIDE], the IC50 at Bile salt export pump [2] worked out at 117 µM.

With `CC(C)C(=O)N[C@@H](CS)C(=O)O`, the IC50 on Bile salt export pump [2] was over 1000 µM.

Regarding `O=C1c2ccccc2CN2C(=O)c3ccccc3CN12` [DIFTALONE], the IC50 at Bile salt export pump [2] was over 1000 µM.

Consider `Cc1ccc(NC(=O)c2cccc(-c3ccco3)c2)cc1-n1cnc2ccc(N3CCN(C)CC3)cc2c1=O`, for which the IC50 on Bile salt export pump [2] was under 10 µM.

Consider `CC(C)Cc1ccc(C(C)C(=O)O)cc1` (stereo not given) [IBUPROFEN], for which, at Bile salt export pump [2], the IC50 is over 789 µM.

As to `CC(=O)OCC[N+](C)(C)C` [ACETYLCHOLINE], the IC50 on Bile salt export pump [2] was over 1000 µM.

Consider `CO[C@H]1/C=C/O[C@@]2(C)Oc3c(C)c(O)c4c(O)c(c(/C=N/N5CCN(C)CC5)c(O)c4c3C2=O)NC(=O)/C(C)=C\C=C\[C@H](C)[C@H](O)[C@@H](C)[C@@H](O)[C@H](C)[C@H](OC(C)=O)[C@H]1C`, for which the IC50 at Bile salt export pump [2] is under 10 µM.

In the case of `CCN(CC)CCNc1ccc(CO)c2sc3ccccc3c(=O)c12` [HYCANTHONE], the IC50 at Bile salt export pump [2] came out at 29.8 µM.

For `Cc1nc(C)c(C)nc1C` [LIGUSTRAZINE], the 50% inhibitory concentration (IC50) at Bile salt export pump [2] was over 1000 µM.

Consider `CCCCCCCCCCCCc1ccc(S(=O)(=O)Nc2nncs2)cc1`, for which the 50% inhibitory concentration (IC50) on Bile salt export pump [2] came to 21 µM.

Turning to `CCCc1c(OCCCOc2ccc3c(=O)cc(CCC(=O)O)oc3c2CCC)ccc(C(C)=O)c1O`, the IC50 at Bile salt export pump [2] was under 10 µM.

As for `NNc1nncc2ccccc12` [HYDRALAZINE], on Bile salt export pump [2], the IC50 was over 1000 µM.

`Cc1ccc(NC(=O)c2cccc3c2oc2ccccc23)cc1NC(=O)c1cccc(OC2CCN(C(C)C)CC2)c1`: the IC50 at Bile salt export pump [2] is under 10 µM.

With `COC(=O)N/N=C/c1c[n+]([O-])c2ccccc2[n+]1[O-]` [CARBADOX], on Bile salt export pump [2], the IC50 was over 940 µM.

Take `Cc1cc(=O)n(-c2ccccc2)n1C` [ANTIPYRINE]: the IC50 on Bile salt export pump [2] is over 1000 µM.

In the case of `O=c1[nH]c2c(O)ccc(CCNCCCS(=O)(=O)CCCOCCc3ccccc3)c2s1`, the IC50 on Bile salt export pump [2] worked out at 32.4 µM.

Take `COc1ccc2cc([C@H](C)C(=O)O)ccc2c1` [NAPROXEN]: the IC50 on Bile salt export pump [2] was over 1000 µM.

Take `CC(C)(C)NCC(O)COc1cccc2c1CCC(=O)N2` (stereo not given) [CARTEOLOL]: the IC50 at Bile salt export pump [2] is over 1000 µM.

As for IVERMECTIN, the half-maximal inhibitory concentration (IC50) on Bile salt export pump [2] is under 10 µM.

Consider `Cc1ccc2c(c1)c(-c1ccnc3c(C(F)(F)F)cccc13)c(C)n2CC(=O)O`, for which the IC50 on Bile salt export pump [2] was under 10 µM.

Turning to `Cc1ccc(NC(=O)c2ccc(CN3CCN(C)CC3)cc2)cc1Nc1nccc(-c2cccnc2)n1` [IMATINIB], on Bile salt export pump [2], the IC50 was under 10 µM.

For the compound `CCCc1c2c(cc3c(=O)cc(C(=O)O)oc13)CCCC2` [PROCROMIL], the concentration for half-maximal inhibition (IC50) at Bile salt export pump [2] was 606 µM.

With `CC1(C)OC(=O)NC1=O` [DIMETHADIONE], the concentration for half-maximal inhibition (IC50) at Bile salt export pump [2] was over 1000 µM.

As for `CC(=O)Oc1ccc(C(c2ccc(OC(C)=O)cc2)c2ccccn2)cc1` [BISACODYL], the IC50 on Bile salt export pump [2] worked out at 56.4 µM.

On to `CC(=O)OCC(=O)C1(O)C(C)CC2C3CC(F)C4=CC(=O)C=CC4(C)C3C(O)CC21C` (stereo not given), for which the IC50 at Bile salt export pump [2] is 33.6 µM.

For `CO/N=C1\CN(c2nc3c(cc2F)c(=O)c(C(=O)O)cn3C2CC2)CC1CN` (stereo not given) [GEMIFLOXACIN], at Bile salt export pump [2], the half-maximal inhibitory concentration (IC50) is over 1000 µM.

As for `N=C(N)NC(=O)c1nc(Cl)c(N)nc1N` [AMILORIDE], at Bile salt export pump [2], the 50% inhibitory concentration (IC50) is over 1000 µM.

For `OCCOCCN1CCN(C(c2ccccc2)c2ccc(Cl)cc2)CC1` (stereo not given) [HYDROXYZINE], the IC50 on Bile salt export pump [2] is 72.9 µM.

Consider `COc1cc(CNC(=O)CCCC/C=C/C(C)C)ccc1O` [CAPSAICIN], for which the IC50 at Bile salt export pump [2] is under 10 µM.

Regarding `CCCSc1nc(N)c2ncn([C@@H]3O[C@H](CO)[C@@H](O)[C@H]3O)c2n1`, at Bile salt export pump [2], the IC50 is over 1000 µM.

On to `CC(C(=O)O)c1ccc(-c2ccccc2)c(F)c1` (stereo not given) [FLURBIPROFEN], for which the IC50 on Bile salt export pump [2] came out at 725 µM.

Regarding `C=CCOc1ccccc1OCC(O)CNC(C)C` (stereo not given) [OXPRENOLOL], the IC50 at Bile salt export pump [2] is over 1000 µM.

On to `Nc1ccc(S(=O)(=O)Nc2ncccn2)cc1` [SULFADIAZINE], for which the IC50 at Bile salt export pump [2] was over 1000 µM.

Regarding `CCc1cccc(C)c1CNC1=C2NC(C)=C(C)N2CC(C(N)=O)=C1`, the IC50 at Bile salt export pump [2] was under 10 µM.

As to `COC(=O)C1=CCCN(C)C1` [ARECOLINE], the half-maximal inhibitory concentration (IC50) at Bile salt export pump [2] is over 1000 µM.

With `COC(=O)[C@H](Cc1ccccc1)NC(=O)[C@@H](N)CC(=O)O`, the IC50 at Bile salt export pump [2] is over 1000 µM.

On to `O=NN(CCCl)C(=O)NCCCl` [CARMUSTINE], for which the half-maximal inhibitory concentration (IC50) on Bile salt export pump [2] was found to be 97.2 µM.

As for `Cc1cc(Nc2nc(NCc3cc(-c4ccccn4)no3)ncc2Cl)[nH]n1`, on Bile salt export pump [2], the IC50 is under 10 µM.

Regarding `CNCC(O)c1cccc(O)c1` (stereo not given), the IC50 at Bile salt export pump [2] is over 1000 µM.

With `CN1C[C@H](CNC(=O)OCc2ccccc2)C[C@@H]2c3cccc4c3c(cn4C)C[C@H]21` [METERGOLINE], the IC50 at Bile salt export pump [2] is under 10 µM.

For `COc1cc(Cc2cnc(N)nc2N)cc(OC)c1OC` [TRIMETHOPRIM], the concentration for half-maximal inhibition (IC50) at Bile salt export pump [2] was 833 µM.

As for `Cc1cccc(Nc2ccncc2S(=O)(=O)NC(=O)NC(C)C)c1` [TORSEMIDE], the half-maximal inhibitory concentration (IC50) at Bile salt export pump [2] worked out at 131 µM.

As for `CN1CCN2c3ccccc3Cc3ccccc3C2C1` (stereo not given) [MIANSERIN], the IC50 at Bile salt export pump [2] lay in the range of 46.8 to 47 µM.

With `COc1cc(C(=O)NCCCCCC(=O)O)cc(OC)c1OC` [CAPOBENIC ACID], on Bile salt export pump [2], the IC50 is over 1000 µM.

Turning to `CC(C)(C)NCC(O)c1ccccc1Cl` (stereo not given) [TULOBUTEROL], on Bile salt export pump [2], the IC50 is over 1000 µM.

Regarding `CCc1nn(CCCN2CCN(c3cccc(Cl)c3)CC2)c(=O)n1CCOc1ccccc1` [NEFAZODONE], the half-maximal inhibitory concentration (IC50) on Bile salt export pump [2] was under 10 µM.

For the compound `O=C(O)c1ccc(OCCn2ccnc2)cc1` [DAZOXIBEN], the IC50 on Bile salt export pump [2] was over 1000 µM.

As to `CN1C(=O)[C@@H](NC(=O)c2cc3ccccc3[nH]2)N=C(c2ccccc2)c2ccccc21` [DEVAZEPIDE], the IC50 on Bile salt export pump [2] was under 10 µM.

On to `N[C@H]1C[C@@H]1c1ccccc1` [(+)-TRANYLCYPROMINE], for which the IC50 at Bile salt export pump [2] was 103 µM.

On to `C[C@@](O)(CS(=O)(=O)c1ccc(F)cc1)C(=O)Nc1ccc(C#N)c(C(F)(F)F)c1` [(S)-BICALUTAMIDE], for which the IC50 on Bile salt export pump [2] is under 10 µM.

In the case of `Cc1c(C)c2c(c(C)c1O)CCC(C)(COc1ccc(CC3SC(=O)NC3=O)cc1)O2` (stereo not given) [TROGLITAZONE], the IC50 on Bile salt export pump [2] was found to be 6.9 µM.

In the case of `CCCc1c2c(c(O)c3c(=O)cc(C(=O)O)oc13)CCCC2` [PROXICROMIL], the IC50 at Bile salt export pump [2] lay in the range of 30 to 30.5 µM.

For `CCOC(=O)c1ccc(N)cc1` [BENZOCAINE], the half-inhibitory concentration (IC50) on Bile salt export pump [2] was over 1000 µM.

As for `O=C1CCC(N2C(=O)c3ccccc3C2=O)C(=O)N1` (stereo not given) [THALIDOMIDE], the concentration for half-maximal inhibition (IC50) on Bile salt export pump [2] is over 1000 µM.

For the compound `COc1ccc(CN(CCN(C)C)c2ccccn2)cc1` [PYRILAMINE], the IC50 at Bile salt export pump [2] was over 1000 µM.

A word on the Ki: it is a dissociation constant, usually derived from enzyme kinetics or from competition with a known ligand. Usually IC50 stands for the concentration that inhibits the measured activity by half.

For the origin of these results see ChEMBL document CHEMBL4017441, “Mitigating the inhibition of human bile salt export pump by drugs: opportunities provided by physicochemical property modulation, in silico modeling, and structural modification” (Drug Metab Dispos, 2012).
